Data reported in article PMC8880564, “Design, Synthesis, and Biological Evaluation of a Novel VEGFR-2 Inhibitor Based on a 1,2,5-Oxadiazole-2-Oxide Scaffold with MAPK Signaling Pathway Inhibition” (Pharmaceuticals, 2022).

Assays:
Assay type in all cases: cell-based
[1] = system: NCI-59 human cancer cell lines; assay: NCI-60 one-dose SRB screening, full panel and subpanels; conditions: for inhibition at 10 µM / activity at 10 µM: Homo sapiens; for inhibition at 10 µM: read-out: mean growth inhibition % (MGI%, GI%); for activity at 10 µM: mean over the full panel, 10 µM one dose, 48 h, SRB, read-out: growth percentage, Mean
Protocol: The structures of the synthesized compounds 6a–h, 12a–c, 11, 13a–c, and 14a–c were submitted to the National Cancer Institute’s Developmental Therapeutics Program (NCI-DTP), and all of them were selected for preliminary in vitro anticancer activity screening against NCI-59 human cancer cell lines at a concentration of 10 µM, using the sulforhodamine B (SRB) assay to determine the growth percentage and cell viability.
The in vitro NCI-60 cell line screening assay was conducted at the National Cancer Institute (NCI), Bethesda, USA against 59 cancer cell lines representing 9 types of cancers, as reported earlier. Briefly, the human cancer cell lines were grown in RPMI 1640 medium containing 5% fetal bovine serum and 2 mM L-glutamine and inoculated into 96-well microtiter plates in 100 μL (5000 to 40,000 cells/well). Then, the plates were incubated at 37 °C, 5% CO2, 95% air, and 100% relative humidity for 24 h. After that, two plates of each cell line were fixed in situ with TCA, to represent cell population at time zero (Tz). The tested compounds were dissolved in DMSO at 400-fold and added so that the final concentration became 10 μM. The plates were then incubated for an additional 48 h followed by the addition of cold TCA to terminate the assay in case of adherent cells. Then, the cells were fixed in situ by cold 50% (w/v) TCA (50 μL; final concentration, 10% TCA) and incubated for 1 h at 4 °C. After discarding the supernatant, the plates were washed 5 times with tap water and air dried. Sulforhodamine B (SRB) solution (100 μL) at 0.4% (w/v) in 1% HOAc was added to each well, and plates were incubated for 10 min. at rt. Then, washing with 1% acetic acid was conducted 5 times to remove the unbound dye followed by air drying. After that, 10 mM trizma base was added to solubilize the bound stain, and the absorbance was read on an automated plate reader at a wavelength of 515 nm. On the other hand, the methodology for suspension cells was the same except that 50 μL of 80% TCA (final concentration, 16% TCA) was gently added to terminate the assay by fixing settled cells at the bottom of the wells. Percentage growth inhibition (GI%) was calculated as follows:
Growth percentage=Ti (test growth in the presence of compound at 10 µM )−Tz (time zero)/C (control growth)−Tz (time zero)×100 for Ti ≥ Tz;
Growth percentage=Ti (test growth in the presence of compound at 10 µM )−Tz (time zero)/Tz (time zero)×100 for Ti < Tz.
where values of 100, 40, 0, −40, and −100 mean no GI, 60% GI, no net G, 40% lethality, and all cells are dead, respectively.
Data are expressed as a one-dose mean graph of growth percentages including the mean, delta, and range.

[2] = system: PC-3; assay: NCI-60 one-dose SRB screening; conditions: Homo sapiens, PC-3, Prostate Cancer, 10 µM one dose, 48 h, read-out: growth percentage
[3] = system: NCI-H322M; assay: NCI-60 one-dose SRB screening; conditions: Homo sapiens, Non-Small Cell Lung Cancer, 10 µM one dose, 48 h, read-out: growth percentage
[4] = system: SK-MEL-28; assay: NCI-60 one-dose SRB screening; conditions: Homo sapiens, SK-MEL-28, Melanoma, 10 µM one dose, 48 h, read-out: growth percentage
[5] = system: HT29; assay: NCI-60 one-dose SRB screening; conditions: Homo sapiens, HT-29, HT29, Colon Cancer, 10 µM one dose, 48 h, read-out: growth percentage
[6] = system: M14; assay: NCI-60 one-dose SRB screening; conditions: Homo sapiens, M14, Melanoma, 10 µM one dose, 48 h, read-out: growth percentage
[7] = system: SNB-19; assay: NCI-60 one-dose SRB screening; conditions: Homo sapiens, SNB-19, CNS Cancer, 10 µM one dose, 48 h, read-out: growth percentage
[8] = system: NCI-H460; assay: NCI-60 one-dose SRB screening; conditions: Homo sapiens, NCI-H460, Non-Small Cell Lung Cancer, 10 µM one dose, 48 h, read-out: growth percentage
[9] = system: A549/ATCC; assay: NCI-60 one-dose SRB screening; conditions: Homo sapiens, Non-Small Cell Lung Cancer, 10 µM one dose, 48 h, read-out: growth percentage
[10] = system: U251; assay: NCI-60 one-dose SRB screening; conditions: Homo sapiens, U-251, U251, CNS Cancer, 10 µM one dose, 48 h, read-out: growth percentage
[11] = system: CAKI-1; assay: NCI-60 one-dose SRB screening; conditions: Homo sapiens, CAKI-1, Renal Cancer, 10 µM one dose, 48 h, read-out: growth percentage
[12] = system: RPMI-8226; assay: NCI-60 one-dose SRB screening; conditions: Homo sapiens, RPMI-8226, Leukemia, 10 µM one dose, 48 h, read-out: growth percentage
[13] = system: MCF7; assay: NCI-60 one-dose SRB screening; conditions: Homo sapiens, MCF7, Breast Cancer, 10 µM one dose, 48 h, read-out: growth percentage
[14] = system: HCC-2998; assay: NCI-60 one-dose SRB screening; conditions: Homo sapiens, HCC-2998, Colon Cancer, 10 µM one dose, 48 h, read-out: growth percentage
[15] = system: TK-10; assay: NCI-60 one-dose SRB screening; conditions: Homo sapiens, TK-10, Renal Cancer, 10 µM one dose, 48 h, read-out: growth percentage
[16] = system: MOLT-4; assay: NCI-60 one-dose SRB screening; conditions: Homo sapiens, MOLT-4, Leukemia, 10 µM one dose, 48 h, read-out: growth percentage

| Structure (SMILES) | inhibition at 10 µM ([1]; full NCI-59 panel, 10 µM) [%] | activity at 10 µM [1] [%] | activity at 10 µM [2] [%] | activity at 10 µM [3] [%] | activity at 10 µM [4] [%] | activity at 10 µM [5] [%] | activity at 10 µM [6] [%] | activity at 10 µM [7] [%] | activity at 10 µM [8] [%] | activity at 10 µM [9] [%] | activity at 10 µM [10] [%] | activity at 10 µM [11] [%] | activity at 10 µM [12] [%] | activity at 10 µM [13] [%] | activity at 10 µM [14] [%] | activity at 10 µM [15] [%] | activity at 10 µM [16] [%] | enhancement of the growth percentage (mean) ([1]; full NCI-59 panel, 10 µM) | mean growth inhibition % (MGI%, GI%) ([1]; full NCI-59 panel, 10 µM) |
| --- | --- | --- | --- | --- | --- | --- | --- | --- | --- | --- | --- | --- | --- | --- | --- | --- | --- | --- | --- |
| Cc1nn(-c2ccccc2)c2ncnc(Nc3ccc(OCc4c(-c5ccccc5)no[n+]4[O-])cc3)c12 [6c, 3-((4-((3-methyl-1-phenyl-1H-pyrazolo[3,4-d]pyrimidin-4-yl)amino)phenoxy)methyl)-4-phenyl-1,2,5-oxadiazole 2-oxide] | 1.58 to 4.57 | 96.2 | 83.5 | 91 | 102 | 93.2 | 90.3 | 101 | 109 | 99.3 | 97.2 | 86 | 94 | 83 | 106 | 110 | 92.9 | – | – |
| Cc1nc(Nc2ccc(OCc3c(-c4ccccc4)no[n+]3[O-])cc2)c2cnn(-c3ccccc3)c2n1 [6b, 3-((4-((6-methyl-1-phenyl-1H-pyrazolo[3,4-d]pyrimidin-4-yl)amino)phenoxy)methyl)-4-phenyl-1,2,5-oxadiazole 2-oxide] | – | 102 | 103 | 99.5 | 101 | 106 | 103 | 99.3 | 111 | 101 | 104 | 87.6 | 114 | 92.4 | 108 | 94.8 | 117 | 1–5% | – |
| [O-][n+]1onc(-c2ccccc2)c1COc1ccc(Nc2ncnc3c2cnn3-c2ccccc2)cc1 [6a, 4-phenyl-3-((4-((1-phenyl-1H-pyrazolo[3,4-d]pyrimidin-4-yl)amino)phenoxy)methyl)-1,2,5-oxadiazole 2-oxide] | – | 100 | 98.1 | 109 | 104 | 96 | 104 | 105 | 73.6 | 96 | 107 | 99.4 | 104 | 96.1 | 106 | 103 | 87.4 | – | no mean growth inhibition percentage |
| Cc1nc(Nc2ccc(OCc3c(-c4ccccc4)no[n+]3[O-])cc2)c2c(C)nn(-c3ccccc3)c2n1 [6d, 3-((4-((3,6-dimethyl-1-phenyl-1H-pyrazolo[3,4-d]pyrimidin-4-yl)amino)phenoxy)methyl)-4-phenyl-1,2,5-oxadiazole 2-oxide] | – | 105 | 99 | 99.9 | 102 | 119 | 96.2 | 99.6 | 112 | 103 | 106 | 101 | 106 | 95.4 | 107 | 126 | 110 | 1–5% | – |
| Cc1nn(-c2ccc(Br)cc2)c2nc(CNc3ccc(NCc4c(-c5ccccc5)no[n+]4[O-])cc3)[nH]c(=O)c12 [14c, 3-(((4-(((1-(4-bromophenyl)-3-methyl-4-oxo-4,5-dihydro-1H-pyrazolo[3,4-d]pyrimidin-6-yl)methyl)amino)phenyl)amino)methyl)-4-phenyl-1,2,5-oxadiazole 2-oxide] | – | 103 | 96.6 | 104 | 103 | 110 | 107 | 102 | 107 | 97.4 | 99.1 | 90.2 | 112 | 88.1 | 112 | 132 | 87.2 | 3.35% | – |
| Cc1nc(Nc2ccc(OCc3c(-c4ccccc4)no[n+]3[O-])cc2)c2c(C)nn(-c3ccc(Br)cc3)c2n1 [6h, 3-((4-((1-(4-bromophenyl)-3,6-dimethyl-1H-pyrazolo[3,4-d]pyrimidin-4-yl)amino)phenoxy)methyl)-4-phenyl-1,2,5-oxadiazole 2-oxide] | 1.58 to 4.57 | 95.4 | 67.4 | 94.4 | 101 | 90 | 89.5 | 94.5 | 100 | 96.4 | 96.4 | 83.8 | 90.6 | 87.4 | 106 | 114 | 87.6 | – | – |
| O=c1[nH]c(CNc2ccc(NCc3c(-c4ccccc4)no[n+]3[O-])cc2)nc2c1cnn2-c1ccccc1 [14a, 3-(((4-(((4-oxo-1-phenyl-4,5-dihydro-1H-pyrazolo[3,4-d]pyrimidin-6-yl)methyl)amino)phenyl)amino)methyl)-4-phenyl-1,2,5-oxadiazole 2-oxide] | 27.9 | 72.1 | 63.3 | 80.2 | 77.2 | 92 | 80 | 94 | 64.2 | 63.8 | 76.1 | 55.1 | 61.9 | 50 | 84.4 | 102 | 44 | – | – |
| Cc1nn(-c2ccc(Br)cc2)c2ncnc(Nc3ccc(OCc4c(-c5ccccc5)no[n+]4[O-])cc3)c12 [6g, 3-((4-((1-(4-bromophenyl)-3-methyl-1H-pyrazolo[3,4-d]pyrimidin-4-yl)amino)phenoxy)methyl)-4-phenyl-1,2,5-oxadiazole 2-oxide] | 1.58 to 4.57 | 98.4 | 90.9 | 94.5 | 99.5 | 101 | 94 | 99.2 | 100 | 97.3 | 102 | 84.9 | 108 | 89 | 104 | 123 | 97.7 | – | – |
